A short description of the series: Solubility in Disintegration Test 2nd fluid (Test Example 1). The note with it: approx. 50 mg in 500 mL Disintegration Test 2nd fluid (Japanese pharmacopoeia, 14th Edition), paddles 50 rpm, concentration by HPLC over time (FIG. 17); compared with crystal form B.

Experimental: First, 500 mL of the 2nd fluid was stirred at 50 rpm with paddles (Toyama Co., Ltd.; DISSOLUTION TESTER), then after the crystals and amorphous compound were added, the solution was sampled at each time period. The sampled solutions were filtered through a filter (0.2 μm), and the concentration of 5-[2-amino-4-(2-furyl)pyrimidin-5-yl]-1-methylpyridin-2(1H)-one in the solution was measured by HPLC method. The conditions for HPLC method are shown below.
Column: CAPCELL PAK C18 AQ, S-5 μm, 4.6 mm ID×250 mm length (Shiseido, Japan)
Column temperature: a constant temperature around 30° C.
Detection wavelength: 262 nm
Solution A: acetonitrile/water/1M ammonium acetate (10:1000:1, v/v/v)
Solution B: acetonitrile/water/1M ammonium acetate (900:100:1, v/v/v)

Consider `Cn1cc(-c2cnc(N)nc2-c2ccco2)ccc1=O` [crystal form C, 5-[2-amino-4-(2-furyl)pyrimidin-5-yl]-1-methylpyridin-2(1H)-one], for which the solubility result is listed as “superior in solubility than the crystal form B”. With `Cn1cc(-c2cnc(N)nc2-c2ccco2)ccc1=O.O` [hydrate crystals, 5-[2-amino-4-(2-furyl)pyrimidin-5-yl]-1-methylpyridin-2(1H)-one hydrate] the entry was “superior in solubility than the crystal form B”.

(Values after patent US7767812B2, “Crystals of pyrimidine compound and process for producing the same” (Eisai R&D Management Co., Ltd., priority 2005, dated 2010).)
